Among the data in BindingDB's records for doi:10.1016/j.bioorg.2017.03.006 (CSIR-Indian Institute of Chemical Biology, 2017) are IC50 values, retold here.

The target in the assay is Alpha-glucosidase MAL32 (Saccharomyces cerevisiae (strain ATCC 204508 / S288c), UniProt P38158). The experiment in a line: α-Glucosidase Inhibition Assay. To be noted: pH 6.8; 37 °C. The protocol:
Briefly, the sample solution (25 μL, 1.0 mM solution in DMSO) was mixed with enzyme solution (25 μL, 0.5 U/mL prepared in 0.1 M phosphate buffer, pH 6.8). […] After the incubation, the substrate p-nitrophenyl α-D-glucopyranoside (25 μL, 0.5 mM, 0.1 Mphosphate buffer, pH 6.8) was added to the mixture and allowed to incubate at 37 ± 1 °C for 30 min. The reaction was then terminated by the addition of aqueous solution of sodium carbonate (100 μL, 0.2 M). […] The uninhibited enzyme solution was taken as blank and an appropriate DMSO control was used. […] The concentration of DMSO in the final solution was maintained below 5.0% so that the enzyme activity was not destroyed.

SMILES strings stand for the structures.

One may read the IC50 as the concentration that inhibits the measured activity by half. Higher therefore signals a need for much substance.

Chain of Alpha-glucosidase MAL32 (P38158 whole entry): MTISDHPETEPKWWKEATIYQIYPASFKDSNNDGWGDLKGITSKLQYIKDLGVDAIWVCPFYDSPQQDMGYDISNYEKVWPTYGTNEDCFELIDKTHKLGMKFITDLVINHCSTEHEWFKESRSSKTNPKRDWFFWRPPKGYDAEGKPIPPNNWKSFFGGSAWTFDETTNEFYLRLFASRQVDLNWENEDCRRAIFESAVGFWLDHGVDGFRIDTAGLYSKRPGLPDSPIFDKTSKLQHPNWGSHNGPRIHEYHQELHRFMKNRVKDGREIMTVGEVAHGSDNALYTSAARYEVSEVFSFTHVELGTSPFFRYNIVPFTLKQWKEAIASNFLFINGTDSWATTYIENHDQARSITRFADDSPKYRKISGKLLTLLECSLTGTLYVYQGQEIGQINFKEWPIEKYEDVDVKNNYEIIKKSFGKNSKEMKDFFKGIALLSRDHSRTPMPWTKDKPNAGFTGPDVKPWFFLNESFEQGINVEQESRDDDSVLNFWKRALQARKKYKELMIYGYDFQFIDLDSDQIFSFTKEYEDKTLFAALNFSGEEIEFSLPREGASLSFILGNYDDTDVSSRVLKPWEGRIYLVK

The compound `O=C(CCc1cn(-c2ccc(O)cc2)nn1)N[C@@H]1OC(CO)[C@@H](O)C(O)C1O` (stereo partly drawn) [3-[1-(4-Hydroxyphenyl)-1H-[1,2,3]triazol-4-yl]-N-(2,3,4,6-tetra-O-acetyl-β-D-glucopyranosyl)propanamide (4f)] gave a 50% inhibitory concentration (IC50) of 148 µM.
